# According to PubChem BioAssay AID816 (SRMLSC, 2007):
# Activity calls are given as the source filed them. No rule for the calls is given here.
# System: S. cerevisiae GAL1 promoter reporter activation counterscreen
# Test: GAL1 promoter activators in yeast, artefact control for yeast lifespan extension project, S. cerevisiae (AID 816);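 also: yeast growth read after 24 h of incubation with compounds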
row,SMILES,EC50
1,Cc1ccc(NC(=O)C2C(=O)N(C)c3ccccc32)cc1 (stereo unspecified),> 40 µM (inactive)
2,C/C(=N\NC(=O)c1cccc(Cl)c1)C1C(=O)c2ccccc2C1=O,> 40 µM (inactive)
3,CCn1ncc(/C=N/NC(=O)c2ccc3c(c2)OCO3)c1C,> 40 µM (inactive)
4,CN(C)C1(c2nnnn2CCOC(=O)Nc2ccc(Cl)cc2)CCCCC1,> 40 µM (inactive)
5,O=C(c1ccccc1)c1nc2ccccc2[nH]c1=O,> 40 µM (inactive)
6,CCOC(=O)C1CCN(C(c2cc3ccc(C)c(C)c3[nH]c2=O)c2nnnn2C2CCCCC2)CC1 (stereo unspecified),> 40 µM (inactive)
7,CC1(C)CC(=O)C2=C(C1)OC1=C(C(=O)CC(C)(C)C1)C2c1ccc(O)cc1O,> 40 µM (inactive)
8,Cn1c(=O)c(=O)n(C)c2cc(S(=O)(=O)N3CCN(Cc4ccccc4)CC3)ccc21,> 40 µM (inactive)
9,CC1(C)CC(=O)c2sc(NS(C)(=O)=O)nc2C1,> 40 µM (inactive)
10,COC(=O)c1sc(S(=O)(=O)Nc2ccc(Br)cc2)c(C(=O)OC)c1C,> 40 µM (inactive)
11,Cc1ccc(C(C2=C(O)CC(C)(C)CC2=O)C2C(=O)CC(C)(C)CC2=O)o1 (stereo unspecified),> 40 µM (inactive)
12,Cc1ccc(C(=O)NNC(=S)NC(=O)c2ccc(Cl)cc2)cc1,> 40 µM (inactive)
13,CS(=O)(=O)Oc1ccc(Br)cc1/C=C1/N=C(c2ccco2)OC1=O,> 40 µM (inactive)
14,CCOC(=O)CCS(=O)(=O)c1nc(-c2ccccc2)cc(C(F)(F)F)n1,> 40 µM (inactive)
15,CCOC(=O)/C(=C\c1cn(C)c2ccccc12)[N+](=O)[O-],> 40 µM (inactive)
16,Cc1cccc(NC(=O)c2c(O)c3cccc4c3n(c2=O)CCC4)n1,> 40 µM (inactive)
17,CCOC(=O)C1Cc2cc3c(cc2C1=O)CC(C(=O)OCC)C3=O (stereo unspecified),> 40 µM (inactive)
18,CCC1CCCCN1S(=O)(=O)c1ccc(S(=O)(=O)N(Cc2cccs2)C2CC2)cc1 (stereo unspecified),> 40 µM (inactive)
19,CCSc1nnc(NC(=O)C2(C)Cc3ccccc3C(=O)O2)s1 (stereo unspecified),> 40 µM (inactive)
20,CC(=NCCc1c(C)[nH]c2ccc(C)cc12)C1=C(O)CC(c2ccccc2)CC1=O (stereo unspecified),> 40 µM (inactive)
21,Cc1ccc(C)c(N2CCN(S(=O)(=O)c3c(C)noc3/C=C/N(C)C)CC2)c1,> 40 µM (inactive)
22,Cc1ccnc(SCc2cc(=O)c(OC(=O)c3ccco3)co2)n1,> 40 µM (inactive)
23,COc1ccc(-c2cc(N)n(S(=O)(=O)c3c(F)c(F)c(F)c(F)c3F)n2)cc1OC,> 40 µM (inactive)
24,COc1ccc2c(=O)c3c(=O)n(Cc4ccco4)c(-c4ccc(C)cc4)nc3oc2c1,> 40 µM (inactive)
25,c1ccc(-c2cc(N3CCOCC3)nc3ccccc23)cc1,> 40 µM (inactive)
26,CC1(C)CC2c3cccc(C(=O)O)c3C(=O)N2c2c1ccc1ccccc21 (stereo unspecified),> 40 µM (inactive)

row,SMILES,EC50
1,O=[N+]([O-])c1c(C(Cl)Cl)nn(-c2ccccc2)c1N1CCCC1,> 40 µM (inactive)
2,COc1cc(C(C[N+](=O)[O-])c2c(-c3ccccc3)cc3ccccn23)cc(OC)c1OC (stereo unspecified),> 40 µM (inactive)
3,C=CS(=O)(=O)c1ccc(Oc2ccc(S(=O)(=O)C=C)cc2)cc1,> 40 µM (inactive)
4,Cc1c(NC(=O)C(=O)/C=C(/O)c2ccccc2)c(=O)n(-c2ccccc2)n1C,> 40 µM (inactive)
5,C=CCN(CC=C)S(=O)(=O)c1ccc2nc(NC(=O)C(C)C)sc2c1,> 40 µM (inactive)
6,O=C(Oc1ccc([N+](=O)[O-])cc1)c1ccc2ccccc2n1,> 40 µM (inactive)
7,Cc1cc(C2C(C#N)=C(N)Oc3n[nH]c(C)c32)c(C)s1 (stereo unspecified),> 40 µM (inactive)
8,Cc1ccc(NC(=O)Nc2nc(-c3ccc(C)s3)cs2)cc1,> 40 µM (inactive)
9,CN1CCN(CC(=O)Nc2ccc(Cl)cc2Cl)CC1,> 40 µM (inactive)
10,CC(C)c1noc2ncc(C(=O)c3cc(Cl)cc(Cl)c3O)cc12,> 40 µM (inactive)
11,CCOC(=O)C1C(=O)C(C(C)=O)C(=O)CC1CC(C)SCC (stereo unspecified),> 40 µM (inactive)
12,O=C(Nc1scc(-c2cccs2)c1C(=O)O)c1cccs1,> 40 µM (inactive)
13,CCOc1ccc(N=Cc2c(O)c3ccccc3oc2=O)cc1,> 40 µM (inactive)
14,O=S1(=O)C=C(Sc2nnc(-c3ccccc3)o2)c2ccccc21,> 40 µM (inactive)
15,Cc1ccc(C(=O)C2C(=O)c3ccccc3C2=O)cc1,> 40 µM (inactive)
16,O=Cc1ccccc1OS(=O)(=O)c1ccccc1,> 40 µM (inactive)
17,Cc1cccc(N2C(=O)C(Oc3ccc(Cl)cc3Cl)C2C=O)c1C (stereo unspecified),> 40 µM (inactive)
18,CCOc1cc(/C=C\[N+](=O)[O-])ccc1OCC(=O)Nc1ccccc1C,> 40 µM (inactive)
19,C=CCn1c(C)cc(C(=O)CSc2nc3ccccc3c(=O)[nH]2)c1C,> 40 µM (inactive)
20,CC[n+]1c(/C=C2\C=C(C)CC(C)(C)C2)sc2ccccc21,> 40 µM (inactive)
21,COc1cc(OC)cc(-c2nc3ccccc3c(=O)n2OC(=O)c2ccc(C)c(C)c2)c1,> 40 µM (inactive)
22,CCN(CC)Cc1c(O)c(Cl)cc2c(C)c(C)c(=O)oc12,> 40 µM (inactive)
23,Cc1ccc(Oc2nc3ccccc3n3c(C)nnc23)c(C)c1,> 40 µM (inactive)
24,CCCc1nc2c(c(=O)c3ccccc3n2C)c(=O)n1C1CCCCCC1,> 40 µM (inactive)
25,Cc1cc(C)cc(CC2CC(=O)N(c3ccc(Cl)cn3)C2=O)c1 (stereo unspecified),> 40 µM (inactive)
26,CC(=O)c1c(O)cc2n(c1=O)-c1ccc(Cl)cc1C2(C)C,> 40 µM (inactive)

row,SMILES,EC50
1,CN1C(=O)C(C(=O)Nc2ccccc2F)c2ccccc21 (stereo unspecified),> 40 µM (inactive)
2,CN1C(=O)C(Cl)(Cl)C(=O)c2ccccc21,> 40 µM (inactive)
3,CC1CCCN(c2nc3ccccc3nc2C(C#N)C(=O)OC2CCCCC2)C1 (stereo unspecified),> 40 µM (inactive)
4,O=S1(=O)C=C(Sc2nc3ccccc3s2)c2ccccc21,> 40 µM (inactive)
5,CCC(=O)Nc1ccccc1Sc1ncnc2scc(-c3ccccc3)c12,> 40 µM (inactive)
6,CCCCC(CC)Cn1c2nc3ccccc3nc2c2c(=N)oc(C)nc21 (stereo unspecified),> 40 µM (inactive)
7,Cn1c(SCC(=O)N2CCCc3ccccc32)nnc1-c1c[nH]c2ccccc12,> 40 µM (inactive)
8,CCCCC(=Nc1ccc(N)cc1)C1=C(O)C(C(=O)OC)C(C)(C)CC1=O (stereo unspecified),> 40 µM (inactive)
9,O=Cc1cc2ccccc2nc1SCc1ccc(Cl)cc1,> 40 µM (inactive)
10,O=C(c1ccccc1)C(CN1CCCC1)c1ccccc1 (stereo unspecified),> 40 µM (inactive)
11,O=C(NCc1cccnc1)c1ccc(S(=O)(=O)N2CCCCC2)cc1,> 40 µM (inactive)
12,O=C(NCC1CCCO1)c1c(O)c2ccccc2[nH]c1=O (stereo unspecified),> 40 µM (inactive)
13,CCOC(=O)c1ccccc1N1C(=O)CSC1=S,> 40 µM (inactive)
14,O=C(NNC1=Nc2cccc3cccc1c23)c1ccccc1Br,> 40 µM (inactive)
15,CC(C)(C)C1CCc2[nH]nc(C(=O)O)c2C1 (stereo unspecified),> 40 µM (inactive)
16,CC(C)C(C(=O)O)N1C(=O)/C(=C/c2cccn2C)SC1=S (stereo unspecified),> 40 µM (inactive)
17,CCNCCNC(=O)c1c(O)c2cccc3c2n(c1=O)CCC3,> 40 µM (inactive)
18,CC(=O)Oc1oc(-c2ccccc2)nc1C=Nc1ccccc1,> 40 µM (inactive)
19,CN1C/C(=C/c2cccnc2)C(=O)/C(=C/c2cccnc2)C1,> 40 µM (inactive)
20,CCCCSc1[nH]c(=O)c(C(=O)OCC)cc1C#N,> 40 µM (inactive)
21,Cc1ccc(CNc2nc3ccccc3s2)s1,> 40 µM (inactive)
22,CCCCCCC1C(C#N)=C(N)OC2=C1C(=O)CC(C)(C)C2 (stereo unspecified),> 40 µM (inactive)
23,COc1cccc(CSc2nc3ccccc3cc2C=O)c1,> 40 µM (inactive)
24,Cc1nn(-c2c(Cl)cc(Cl)cc2Cl)c(=O)c2ccccc12,> 40 µM (inactive)
25,O=C(CSc1nc2ccccc2o1)c1cc2ccccc2oc1=O,> 40 µM (inactive)
26,CC(=C1C(=O)c2ccccc2C1=O)N1CCN(C/C=C/c2ccccc2)CC1,> 40 µM (inactive)

row,SMILES,EC50
1,Cc1ccc2nc(-c3ccc(NC(=O)CSc4ccccc4)cc3)[nH]c2c1,> 40 µM (inactive)
2,COCCn1c(SCC(=O)Nc2ccc(C)cc2)nc2c(oc3ccccc32)c1=O,> 40 µM (inactive)
3,COCCCN(C(=S)Nc1cc(Cl)cc(Cl)c1)C(C)c1ccncc1 (stereo unspecified),> 40 µM (inactive)
4,Cc1ccc2[nH]c(=O)c(CN(CCO)Cc3nnnn3CCc3ccccc3)cc2c1,> 40 µM (inactive)
5,CC(C)OCCCNS(=O)(=O)c1ccc2ccccc2c1,> 40 µM (inactive)
6,COc1cc(OC)cc(-c2nc3ccccc3c(=O)n2OC(=O)c2ccccc2C)c1,> 40 µM (inactive)
7,O=C(Oc1cc(=O)n2ccccc2n1)c1ccccc1,> 40 µM (inactive)
8,O=[N+]([O-])c1cc2oc3c(c2c(C=NCc2ccncc2)c1O)CCCC3,> 40 µM (inactive)
9,COc1ccccc1CN(Cc1nc2ccccc2c(=O)[nH]1)C(=O)Nc1cccc(C)c1,> 40 µM (inactive)
10,COc1cc(/C=c2\sc3nc(-c4ccncc4)nn3c2=O)ccc1OC(C)=O,> 40 µM (inactive)
11,O=C(Nc1scc(-c2ccc(F)cc2)c1C(=O)O)c1ccco1,> 40 µM (inactive)
12,CCOC(=O)C1=C(C)Nc2nc(=S)[nH]n2C1c1ccc(Cl)cc1 (stereo unspecified),> 40 µM (inactive)
13,CCOC(=O)CSC1=NC(=O)/C(=C/c2ccc(OC)cc2)S1,> 40 µM (inactive)
14,O=C(O)c1c[nH]c(=S)n1-c1ccc(F)cc1,> 40 µM (inactive)
15,C/C(=N\NC(=O)c1ccccc1O)c1c(O)cc(C)oc1=O,> 40 µM (inactive)
16,CC1=C(C#N)C2C(/C1=N/O)C2(C)C (stereo unspecified),> 40 µM (inactive)
17,CN(C)/C=C(/C(=O)c1ccc(Cl)cc1Cl)S(=O)(=O)c1ccc(Cl)cc1,> 40 µM (inactive)
18,COc1ccccc1-c1c(C)oc2cc(OC(=O)c3ccco3)ccc2c1=O,> 40 µM (inactive)
19,CC1=NN(c2ccc(C(F)(F)F)cn2)C(=O)C1,> 40 µM (inactive)
20,CCc1cc2c(=O)c(Oc3ccccc3)c(C)oc2cc1O,> 40 µM (inactive)
21,O=C(NCc1ccco1)c1c(O)c2cccc3c2n(c1=O)CCC3,> 40 µM (inactive)
22,O=C(CCc1ccccc1)NCCCN1CCOCC1,> 40 µM (inactive)
23,O=C(CCl)N1c2ccccc2OCC1c1ccccc1 (stereo unspecified),> 40 µM (inactive)
